Literature values in article PMC3480965 (Molecular pharmaceutics, 2012).

Assays:
[1] = target: melanocortin-1 (MC1) receptor (Mus musculus, UniProt Q01727); conditions: read-out: MC1 receptor binding affinity (IC50); B16/F1 melanoma cells
[2] = test system: melanoma; conditions: in vivo, 2 h

Sequence of melanocortin-1 (MC1) receptor (Q01727 whole entry): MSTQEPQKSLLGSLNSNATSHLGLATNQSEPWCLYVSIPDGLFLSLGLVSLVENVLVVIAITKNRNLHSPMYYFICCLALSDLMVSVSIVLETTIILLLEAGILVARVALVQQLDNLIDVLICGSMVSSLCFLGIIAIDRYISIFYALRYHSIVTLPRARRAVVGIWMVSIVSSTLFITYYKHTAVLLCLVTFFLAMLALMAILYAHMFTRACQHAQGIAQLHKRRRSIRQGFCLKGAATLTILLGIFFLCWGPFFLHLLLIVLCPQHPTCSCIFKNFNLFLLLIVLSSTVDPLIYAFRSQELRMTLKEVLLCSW

Row | IC50 [1] | Liver uptake [2] | Melanoma uptake [2] | Substance
1 | 2.1 nM | – | – | 1,4,7,10-tetraazacyclononane-1,4,7,10-tetraacetic acid-GGNle-CycMSHhex (GGXDHFRWK; X3 = norleucine (Nle); D-Phe6; lactam bridge between Asp4 and Lys9 side chains (cyclic); C-terminal amide; 64Cu-labelled for biod) [DOTA-GGNle-CycMSHhex]
2 | – | 11.0 % ID/g | 4.63 ± 0.45 % ID/g | Ac-Nle-Asp-His-D-Phe-Arg-Trp-Gly-Lys(^64Cu-DOTA)-NH2 [^64Cu-DOTA-NAPamide]
3 | – | 7.3 % ID/g | 8.80 ± 1.70 % ID/g | ^64Cu-DOTA-Re-[Cys[3],[4],[10], D-Phe^7, Arg^11]a-MSH3–13 [^64Cu-DOTA-ReCCMSH(Arg^11)]
